# Values quoted from earlier work, collected in PubChem BioAssay AID1259409 (Chemical Carcinogenesis Research Information System (CCRIS), 2018).
# Tested on: rodent chemically induced tumor inhibition, incidence and multiplicity
# Experiment: CCRIS tumor inhibitor studies
# Text: The CCRIS database contains chemical records with carcinogenicity, mutagenicity, tumor promotion, and tumor inhibition test results. It was developed by the National Cancer Institute (NCI). Data are derived from studies cited in primary journals, current awareness tools, NCI reports, and other sources. Test results have been reviewed by experts in carcinogenesis and mutagenesis.
# CCRIS provides historical information from the years 1985 - 2011. It is no longer updated.
# This is an archive assay for CCRIS tumor inhibitor studies.
smiles,measurement,setting,value
Oc1cccc(O)c1,"tumour outcome (control, treated, inhibition, significance)","Carcinogen: 3,2'-DIMETHYL-4-AMINOBIPHENYL, 13394-86-0, Dose [Inhibitor]: 0, 0.8% IN BASAL DIET BEGINNING POST CARCINOGEN TREATMENT AND CONTINUING FOR 40 WK (STUDY DURATION: 60 WK), Route [Inhibitor]: ORAL, Species: RAT, Strain/Sex: F344/MALE, Target Tissue: Type of Lesion: LARGE INTESTINE: ADENOMA AND ADENOCARCINOMA, Dose [Carcinogen]: 50 MG/KG 1/2 WK FOR 20 WK TO RATS MAINTAINED ON ETHINYL ESTRADIOL CONTAINING DIET (0.75 PPM) FOR 1 WK CYCLED WITH ETHINY, Promoter: ETHINYL ESTRADIOL, 57-63-6","3/10 (30%), 6/10 (60%), -100%, not significant"
same,"tumour outcome (control, treated, inhibition, significance)","Carcinogen: 3,2'-DIMETHYL-4-AMINOBIPHENYL, 13394-86-0, Dose [Inhibitor]: 0, 0.8% IN BASAL DIET BEGINNING POST CARCINOGEN TREATMENT AND CONTINUING FOR 40 WK (STUDY DURATION: 60 WK), Route [Inhibitor]: ORAL, Species: RAT, Strain/Sex: F344/MALE, Target Tissue: Type of Lesion: PANCREAS: ACINAR CELL NODULE, Dose [Carcinogen]: 50 MG/KG 1/2 WK FOR 20 WK TO RATS MAINTAINED ON ETHINYL ESTRADIOL CONTAINING DIET (0.75 PPM) FOR 1 WK CYCLED WITH ETHINY, Promoter: ETHINYL ESTRADIOL, 57-63-6","4/10 (40%), 3/10 (30%), 25%, not significant"
same,"tumour outcome (control, treated, inhibition, significance)","Carcinogen: 3,2'-DIMETHYL-4-AMINOBIPHENYL, 13394-86-0, Dose [Inhibitor]: 0, 0.8% IN BASAL DIET BEGINNING POST CARCINOGEN TREATMENT AND CONTINUING FOR 40 WK (STUDY DURATION: 60 WK), Route [Inhibitor]: ORAL, Species: RAT, Strain/Sex: F344/MALE, Target Tissue: Type of Lesion: PREPUTIAL GLAND: ADENOMA AND CARCINOMA, Dose [Carcinogen]: 50 MG/KG 1/2 WK FOR 20 WK TO RATS MAINTAINED ON ETHINYL ESTRADIOL CONTAINING DIET (0.75 PPM) FOR 1 WK CYCLED WITH ETHINY, Promoter: ETHINYL ESTRADIOL, 57-63-6","5/10 (50%), 3/10 (30%), 40%, not significant"
same,"tumour outcome (control, treated, inhibition, significance)","Carcinogen: 3,2'-DIMETHYL-4-AMINOBIPHENYL, 13394-86-0, Dose [Inhibitor]: 0, 0.8% IN BASAL DIET BEGINNING POST CARCINOGEN TREATMENT AND CONTINUING FOR 40 WK (STUDY DURATION: 60 WK), Route [Inhibitor]: ORAL, Species: RAT, Strain/Sex: F344/MALE, Target Tissue: Type of Lesion: PROSTATE: CARCINOMA, Dose [Carcinogen]: 50 MG/KG 1/2 WK FOR 20 WK TO RATS MAINTAINED ON ETHINYL ESTRADIOL CONTAINING DIET (0.75 PPM) FOR 1 WK CYCLED WITH ETHINY, Promoter: ETHINYL ESTRADIOL, 57-63-6","5/10 (50%), 3/10 (30%), 40%, not significant"
same,"tumour outcome (control, treated, inhibition, significance)","Carcinogen: 3,2'-DIMETHYL-4-AMINOBIPHENYL, 13394-86-0, Dose [Inhibitor]: 0, 0.8% IN BASAL DIET BEGINNING POST CARCINOGEN TREATMENT AND CONTINUING FOR 40 WK (STUDY DURATION: 60 WK), Route [Inhibitor]: ORAL, Species: RAT, Strain/Sex: F344/MALE, Target Tissue: Type of Lesion: SMALL INTESTINE: ADENOMA AND ADENOCARCINOMA, Dose [Carcinogen]: 50 MG/KG 1/2 WK FOR 20 WK TO RATS MAINTAINED ON ETHINYL ESTRADIOL CONTAINING DIET (0.75 PPM) FOR 1 WK CYCLED WITH ETHINY, Promoter: ETHINYL ESTRADIOL, 57-63-6","2/10 (20%), 2/10 (20%), 0%, not significant"
same,"tumour outcome (control, treated, inhibition, significance)","Carcinogen: 3,2'-DIMETHYL-4-AMINOBIPHENYL, 13394-86-0, Dose [Inhibitor]: 0, 0.8% IN BASAL DIET BEGINNING POST CARCINOGEN TREATMENT AND CONTINUING FOR 40 WK (STUDY DURATION: 60 WK), Route [Inhibitor]: ORAL, Species: RAT, Strain/Sex: F344/MALE, Target Tissue: Type of Lesion: SUBCUTIS: TUMOR, Dose [Carcinogen]: 50 MG/KG 1/2 WK FOR 20 WK TO RATS MAINTAINED ON ETHINYL ESTRADIOL CONTAINING DIET (0.75 PPM) FOR 1 WK CYCLED WITH ETHINY, Promoter: ETHINYL ESTRADIOL, 57-63-6","1/10 (10%), 1/10 (10%), 0%, not significant"
same,"tumour outcome (control, treated, inhibition, significance)","Carcinogen: 3,2'-DIMETHYL-4-AMINOBIPHENYL, 13394-86-0, Dose [Inhibitor]: 0, 0.8% IN BASAL DIET BEGINNING POST CARCINOGEN TREATMENT AND CONTINUING FOR 40 WK (STUDY DURATION: 60 WK), Route [Inhibitor]: ORAL, Species: RAT, Strain/Sex: F344/MALE, Target Tissue: Type of Lesion: ZYMBAL GLAND: ADENOMA OR CARCINOMA, Dose [Carcinogen]: 50 MG/KG 1/2 WK FOR 20 WK TO RATS MAINTAINED ON ETHINYL ESTRADIOL CONTAINING DIET (0.75 PPM) FOR 1 WK CYCLED WITH ETHINY, Promoter: ETHINYL ESTRADIOL, 57-63-6","2/10 (20%), 2/10 (20%), 0%, not significant"
same,"tumour outcome (control, treated, inhibition, significance)","Carcinogen: BENZO[A]PYRENE, 50-32-8, Dose [Inhibitor]: 10 MG IN 0.1 ML ACETONE 3/WK ADMINISTERED SIMULTANEOUSLY WITH CARCINOGEN FOR DU RATION OF STUDY (STUDY DURATION: 368 D), Route [Inhibitor]: DERMAL, Species: MOUSE, Strain/Sex: ICR/FEMALE, Target Tissue: Type of Lesion: SKIN: PAPILLOMA, Dose [Carcinogen]: 5 UG IN 0.1 ML ACETONE THAT ALSO CONTAINED AGENT 3/WK FOR DURATION OF STUDY, Promoter: NONE USED","14/50 (28%), 5/50 (10%), 64%, not calculated"
same,"tumour outcome (control, treated, inhibition, significance)","Carcinogen: BENZO[A]PYRENE, 50-32-8, Dose [Inhibitor]: 10 MG IN 0.1 ML ACETONE 3/WK ADMINISTERED SIMULTANEOUSLY WITH CARCINOGEN FOR DU RATION OF STUDY (STUDY DURATION: 368 D), Route [Inhibitor]: DERMAL, Species: MOUSE, Strain/Sex: ICR/FEMALE, Target Tissue: Type of Lesion: SKIN: SQUAMOUS CARCINOMA, Dose [Carcinogen]: 5 UG IN 0.1 ML ACETONE THAT ALSO CONTAINED AGENT 3/WK FOR DURATION OF STUDY, Promoter: NONE USED","10/50 (20%), 2/50 (4%), 80%, not calculated"
same,"tumour outcome (control, treated, inhibition, significance)","Carcinogen: N-BIS(2-HYDROXYPROPYL)NITROSAMINE, 53609-64-6, Dose [Inhibitor]: 0, 0.8% IN DIET FOR 30 WK BEGINNING POST CARCINOGEN (STUDY DURATION: 32 WK), Route [Inhibitor]: ORAL, Species: RAT, Strain/Sex: F344/MALE, Target Tissue: Type of Lesion: LUNG: CARCINOMA, Dose [Carcinogen]: 0.1% IN DRINKING WATER FOR 2 WK, Promoter: NONE USED","45%, 40%, 11%, not calculated"
same,"tumour outcome (control, treated, inhibition, significance)","Carcinogen: N-BIS(2-HYDROXYPROPYL)NITROSAMINE, 53609-64-6, Dose [Inhibitor]: 0, 0.8% IN DIET FOR 30 WK BEGINNING POST CARCINOGEN TREATMENT (STUDY DURATION: 32 WK), Route [Inhibitor]: ORAL, Species: RAT, Strain/Sex: F344/MALE, Target Tissue: Type of Lesion: BLADDER: ADENOMA, Dose [Carcinogen]: 0.1% IN DRINKING WATER FOR 2 WK, Promoter: NONE USED","5%, 10%, -100%, not calculated"
same,"tumour outcome (control, treated, inhibition, significance)","Carcinogen: N-BIS(2-HYDROXYPROPYL)NITROSAMINE, 53609-64-6, Dose [Inhibitor]: 0, 0.8% IN DIET FOR 30 WK BEGINNING POST CARCINOGEN TREATMENT (STUDY DURATION: 32 WK), Route [Inhibitor]: ORAL, Species: RAT, Strain/Sex: F344/MALE, Target Tissue: Type of Lesion: KIDNEY: TUMOR, Dose [Carcinogen]: 0.1% IN DRINKING WATER FOR 2 WK, Promoter: NONE USED","10%, 35%, -250%, not calculated"
